# Results: patent US11058756B2, “Compositions and methods of treating autoimmune disease by reducing enterococcus” (YALE UNIVERSITY, priority 2017, dated 2021)
# Entries after “also recorded” stand apart in the source; their conditions may differ.
# What was measured:
# (NZWxBXSB)F1 mice = test: Oral antibiotics in drinking water: mortality, clinical outcome, proteinuria and organ histology in the autoimmune hybrid model; type: in vivo, mouse
# From the text: 6-week-old male (NZWxBXSB)F1 mice and C57BL/6J mice were used in this study except if noted otherwise. (NZWxBXSB)F1 were bred by mating NZW/LaJ females with BXSB/MpJ males obtained from Jackson Laboratory (Bar Harbor, Me., USA). Parental littermates of (NZWxBXSB)F1 were randomly mixed with littermates from other parental cages 21 days after birth to equilibrate the microbiomes from different cages and parental origin. All mice were maintained in a specific-pathogen-free environment. (NZWxBXSB)F1 mice were provided with water and a standard laboratory diet ad libitum (2018 Harlan Teklad, South Easton, Mass., USA). They were supplied with hardwood chips as bedding and were housed in a temperature-controlled, air-conditioned room on a 12-hr light-dark cycle. Germ-free (GF) C57BL/6 mice were kept under sterile conditions in CBC's (Class Biologically Clean, Madison, Wis., USA) Quad flexible film isolators (Softwall), exposed to a 12-hr light/dark cycle and provided standard, autoclaved tap water and mouse chow (2018S Harlan Teklad, South Easton, Mass., USA) ad libitum. To exclude a Th17 bias, a PCR for segmented filamentous bacteria (SFB) was performed on fecal DNA from all mice involving Th17 studies. Fecal SFB detection at 6-8 weeks of age that correlates with ileal SFB colonization was performed as described (Barman et al., 2008, Infect Immun, 76, 907-915; Kriegel et al., 2011, Proc Natl Acad Sci USA, 108, 11548-11553). All Th17 data was derived from SFB-negative animals.
# (§1) Mice were cohoused for 3 to 4 weeks before antibiotic treatment to allow for equilibration of the microbiota. Single antibiotic or broad-spectrum antibiotic administration consisted of metronidazole (1 g/liter; Fisher Scientific), neomycin (1 g/liter; Fisher Scientific), ampicillin (1 g/liter; Sigma) and vancomycin (0.5 g/liter; Acros Organics) in the drinking water for up to 22 weeks or a targeted regiment for 2 weeks and then replaced with regular water for the duration of the experiment. For broad-spectrum antibiotic experiments (vancomycin, ampicillin, metronidazole, and neomycin combined), sweetener (Equal, 4 g/L) was added to both the antibiotics and control water due to the metallic taste of metronidazole. Twenty-four hours after cessation of antibiotic water, mice were administered 1×10^6 CFUs of vancomycin-resistant E. gallinarum via oral gavage, isolated from liver tissue of a vancomycin-treated mouse that continued to show signs of autoimmune disease (high-level resistance was confirmed by vanC gene PCR). E. gallinarum was grown at 37° C. in Gifu Anaerobic Broth (HIMEDIA Laboratories) to early stationary phase under anaerobic conditions (82% N2, 15% CO2, 3% H2 by volume) in an anaerobic chamber and diluted in PBS to 10^7 CFUs.
# Samples were obtained at autopsy and fixed in 10% neutral formalin, and histological sections were stained with hematoxylin and eosin (H&E) and scored in a blinded fashion. Glomerulonephritis was scored on a scale of 0-4 based on the intensity and extent of histopathological changes (Klopfleisch, 2013, BMC Vet Res, 9, 123). A grade of 0 was given to kidneys without glomerular lesions; grade 1 consisted of minimal thickening of the mesangium; grade 2 contained noticeable increases in both mesangial and glomerular cellularity; grade 3 was characterized by the preceding conditions with superimposed inflammatory exudates and capsular adhesions; and grade 4 consisted of obliterated glomerular architecture in greater than 70% of glomeruli. […]
# E. gallinarum = test: Assessment of bacterial translocation and tissue burden (anaerobic tissue cultures, CFU); type: in vivo, mouse; conditions: FIG. 1K-1N
# From the text: Mice were cohoused for 3 to 4 weeks before antibiotic treatment to allow for equilibration of the microbiota. Single antibiotic or broad-spectrum antibiotic administration consisted of metronidazole (1 g/liter; Fisher Scientific), neomycin (1 g/liter; Fisher Scientific), ampicillin (1 g/liter; Sigma) and vancomycin (0.5 g/liter; Acros Organics) in the drinking water for up to 22 weeks or a targeted regiment for 2 weeks and then replaced with regular water for the duration of the experiment. For broad-spectrum antibiotic experiments (vancomycin, ampicillin, metronidazole, and neomycin combined), sweetener (Equal, 4 g/L) was added to both the antibiotics and control water due to the metallic taste of metronidazole. […] E. gallinarum was grown at 37° C. in Gifu Anaerobic Broth (HIMEDIA Laboratories) to early stationary phase under anaerobic conditions (82% N2, 15% CO2, 3% H2 by volume) in an anaerobic chamber and diluted in PBS to 10^7 CFUs.
# 14-, 16- and 18-week-old mice underwent sterile laparotomy and nose, mouth, small intestine (luminal and adherent fractions), mesenteric veins, mesenteric lymph nodes (MLN), liver and spleen were aseptically collected in BBL Mycoflask Thioglycollate (Fluid) Prepared Media (BD Diagnostic Systems) and incubated for 72 hours in anaerobic conditions at 37° C. Gifu Media Agar plates were streaked with the content from the BBL Mycoflask Thioglycollate and incubated for 48 hours in an anaerobic chamber at 37° C. Colony Formation Units (CFU) were counted and concentration determined per milligram of tissue. Single colonies were grown in Gifu anaerobic media for 48 hours in an anaerobic chamber at 37° C. and aliquots from each sample were collected and centrifuge for 10 minutes at 10000×g. DNA was extracted from bacterial pellets using DNeasy Blood and Tissue kit (Qiagen) and submitted to PCR amplification of the 16S region and Sanger sequencing. In addition, purified DNA was used for eubacterial, Enterococcus genus and Enterococcus gallinarum PCR assays.
# MLN Th17 cells = test: Vancomycin in vitro assay on MLN cell cultures (Th17 frequency by FACS); type: cell-based, mouse; conditions: vancomycin 16 μg/mL, anti-CD3/anti-CD28, 3 days (FIG. 19D legend)
# Experimental: […] In vitro samples were stained as described above. All samples were collected using an LSR II flow cytometer (Becton Dickinson). All flow cytometry data were analyzed by FlowJo version 9.7 (Tree Star).
# Th17 and Tfh cells = test: Th17/Tfh cell frequencies (FACS) and splenocyte cytokines (LEGENDplex) after antibiotic treatment in vivo; parameters: species or system mouse
# From the text: as §1
# Cytokine levels were determined from culture supernatants using LEGENDplex™ (BioLegend), a bead-based immunoassay. The preformed mouse T helper cytokine panel was used. […]
# For direct ex vivo intracellular cytokine detection, cells isolated from small intestinal lamina propria, MLN or spleen were immediately treated with GolgiStop (BD Bioscience) and surface-stained in FACS buffer (PBS, 2% bovine serum albumin, 0.2 mg of sodium azide, 2 mM EDTA) for 30 minutes in the dark at room temperature with fluorescently conjugated antibodies specific for CD3, CD4, CD11b, CD11c, CD44, CD62L, CD19, CD45, CD45R (B220), CXCR5, GITR, IL-17, IFN-g, Ly6C, NK1.1, PDCA-1, PD-1 and PSGL-1. […] Cell viability was assessed with Zombie NIR Fixable Viability Kit (BioLegend).
# ERV gp70 = test: Liver ERV gp70 expression by RT-qPCR after oral antibiotics; type: in vivo, mouse; conditions: oral vancomycin; FIG. 7
# From the text: as §1, with “E. gallinarum was grown at 37° C. in Gifu Anaerobic Broth (HIMEDIA Laboratories) to early stationary phase under anaerobic conditions (82% N2, 15% CO2, 3% H2 by volume) in an anaerobic chamber and diluted in PBS to 10^7 CFUs.” left out
# RNA was isolated from hepatocytes, dendritic cells or ileum using the RNAeasy plus mini kit (Qiagen) according to the manufacturer's instructions. cDNA was generated using the QuantiTect Reverse Transcription Kit (Qiagen). […]
smiles,measurement,setting,value
CN[C@H](CC(C)C)C(=O)N[C@H]1C(=O)N[C@@H](CC(N)=O)C(=O)N[C@H]2C(=O)N[C@H]3C(=O)N[C@H](C(=O)N[C@H](C(=O)O)c4cc(O)cc(O)c4-c4cc3ccc4O)[C@H](O)c3ccc(c(Cl)c3)Oc3cc2cc(c3O[C@@H]2O[C@H](CO)[C@@H](O)[C@H](O)[C@H]2O[C@H]2C[C@](C)(N)[C@H](O)[C@H](C)O2)Oc2ccc(cc2Cl)[C@H]1O [vancomycin],Mortality,"(NZWxBXSB)F1 mice; single antibiotic in drinking water from 6 weeks of age, followed for 30 weeks or until death, FIG. 1A",prevented
same,"autoimmune manifestations (proteinuria, organ histology scores)","(NZWxBXSB)F1 mice; single antibiotic in drinking water, FIG. 1D-1I",prevented
same,"Translocation (bacterial growth in mesenteric veins, MLN, liver, spleen)","E. gallinarum; (NZWxBXSB)F1 mice, antibiotics in drinking water, 16-18 weeks of age",reduced
same,"suppression of growth of E. gallinarum in tissues, VANC compared to NEO-treated animals","E. gallinarum; mesenteric veins, MLN, liver, spleen, P=0.0337 and P<0.005",significantly higher
same,direct influence on immune cells in vitro (MLN Th17 cell frequency),MLN Th17 cells,no direct influence
same,Tfh cells,"Th17 and Tfh cells; MLN of (NZWxBXSB)F1 mice treated via drinking water, FIG. 19C",reduced; also recorded: suppresses
same,Th17 cells,"Th17 and Tfh cells; spleen and MLN of (NZWxBXSB)F1 mice, SFB-negative, treated via drinking water, FIG. 19",reduced; also recorded: suppresses
same,cytokine signatures (inflammatory cytokines in splenocyte supernatants),"Th17 and Tfh cells; splenocytes stimulated with anti-CD3/anti-CD28 for 3 days, FIG. 19A",reduced; also recorded: suppresses
same,hepatic ERV gp70,ERV gp70,suppressed
